US20040126437A1, “Typing natural products” (priority 2000, published 2004)
Values after ≈ are worked out from the molar mass of the structure shown.

Legend:
Mycobaterium phlei = settings: cited from earlier work
[1] = tested on: uterus colon carcinoma (line L5-26); settings: uterus colon carcinoma line L5-26; cited from earlier work
Pseudomonas aeruginosa [2] = settings: cited from earlier work
Microsporeum gypseum = settings: cited from earlier work
Staphylococcus aureus [3] = settings: cited from earlier work
A.benhamiae = settings: cited from earlier work
[4] = tested on: Micrococcus lysodeikticus; settings: cited from earlier work
Corynebacterium equii = settings: cited from earlier work
Mycobacterium smegmatis = settings: cited from earlier work
B.subtilis = settings: cited from earlier work
[5] = tested on: fibrosarcoma (line HT-1080); settings: fibrosarcoma line HT-1080; cited from earlier work
T. cruzi trypomastigotes = experiment: Effects against T. cruzi trypomastigotes cultures; assay type: cell-based, Trypanosoma cruzi
Method: FIG. 2 are recorded ID50 data related to trypomastigotes cultures (one of the growing stages of Trypanosoma cruzi (T.cruzi)) also to the compounds DCBEN, DHCA, E and mixture E+DPB and the effects of said compounds extracted from propolis trypomastigotes of T.cruzi (in mg/mL). […] The same result for Violet Crystal is 0.205 mg/mL, as previously mentioned. The results for insulated compounds are greater than the Violet Crystal.

Escherichia coli = experiment: Antibacterial activity, inhibition halos in culture; assay type: cell-based
Excerpt: (§1) The insulated compounds DCBEN, DHCA, E and mixture of E+DPB have their antibacterial properties tested in cultures of E.coli, Pseudomonas aeruginosa, Staphylococcus aureus and Streptococcus faecalis. Inhibition halos (in mm) and the obtained data recorded as in FIG. 1.
(§2) Antibacterial activity of the compounds K, G1, G2 e L2 has been evaluated in cultures of E.coli, Pseudomonas aeruginosa, Staphylococcus aureus and Streptococcus faecalis. Inhibition halos have been measured (mm) and the data recorded as in FIG. 1. S.aureus, S.faecalis e E.coli, are sensitive to the tested compounds, just varying the halos, the compound G2 has the most toxity in cultures of S.aureus e S.faecalis. None of the tested compounds had effect in P.aeruginosa.

Staphylococcus aureus [6] = experiment: as above; assay type: cell-based; settings: Staphylococcus aureus culture
Excerpt: as §1, §2

Pseudomonas aeruginosa [7] = experiment: as above; assay type: cell-based
Excerpt: as §1, §2

Streptococcus faecalis = experiment: as above; assay type: cell-based; settings: Streptococcus faecalis culture
Excerpt: as §1, §2

[8] = tested on: Staphylococcus epidermidis; settings: cited from earlier work
[9] = tested on: Thermoactinomyces intermedius; settings: cited from earlier work

**Q.** With CC(C)=CCc1cc(C=CC(=O)O)cc(CC=C(C)C)c1O [DHCA, 3,5-diprenyl-4-hydroxycinnamic acid] as the compound, how does the MIC (Mycobaterium phlei) read?
**A.** Its MIC is 62.5 µg/mL (≈ 208 µM).

**Q.** And the “ED50 (cytotoxic dosage—50%)” value [1]?
**A.** The value was 59,32 μg/mL.

**Q.** And the MIC (Pseudomonas aeruginosa [2])?
**A.** The MIC was 31.3 µg/mL (≈ 104 µM).

**Q.** What about the MIC (Microsporeum gypseum) of the same compound?
**A.** Its MIC is 7,8 μg/mL.

**Q.** What about the MIC (Staphylococcus aureus [3]) of the same compound?
**A.** The MIC was 62.5 µg/mL (≈ 208 µM).

**Q.** And the MIC (A.benhamiae)?
**A.** Its MIC is 15,6 μg/mL.

**Q.** What about the CIM [4] of the same compound?
**A.** The CIM was 31.3 µg/mL.

**Q.** What about the CIM (Corynebacterium equii) of the same compound?
**A.** Its CIM is 31.3 μg/m/L.

**Q.** What about the MIC (Mycobacterium smegmatis) of the same compound?
**A.** The MIC was 31.3 µg/mL (≈ 104 µM).

**Q.** What about the CIM (B.subtilis) of the same compound?
**A.** Its CIM is 31.3 µg/mL.

**Q.** And the “ED50 (cytotoxic dosage—50%)” value [5]?
**A.** The value was 45.47 µg/mL (≈ 151 µM).

**Q.** And the ID50/24 h (T. cruzi trypomastigotes)?
**A.** The ID50/24 h was 932 ± 46 µg/mL (≈ 3100 µM).

**Q.** What about the “Antibacterial effect in words” value (Escherichia coli; E.coli culture) of the same compound?
**A.** The value was “did not present inhibition activity”.

**Q.** And the “Antibacterial activty, inhibition halo” value (Escherichia coli; Escherichia coli culture)?
**A.** The value was “Ø”.

**Q.** What about the “Antibacterial activty, inhibition halo” value (Staphylococcus aureus [6]) of the same compound?
**A.** The value was “+ (+ halo < or = to 8 mm)”.

**Q.** What about the “Antibacterial activty, inhibition halo” value (Pseudomonas aeruginosa [7]) of the same compound?
**A.** The value was “Ø”.

**Q.** And the “Antibacterial activty, inhibition halo” value (Streptococcus faecalis)?
**A.** Its value is “+ (+ halo < or = to 8 mm)”.

**Q.** What about the CIM [8] of the same compound?
**A.** The CIM was 62.5 µg/mL.

**Q.** What about the MIC [9] of the same compound?
**A.** Its MIC is 62.5 µg/mL (≈ 208 µM).
